Data as given in the NIST ThermoML archive (doi:10.1021/je401097f).

Experiments:
[1] = refractive index (other wavelength) (dimensionless); conditions: 100 kPa, Liquid, Wavelength=632.8 nm, Standard Abbe refractometry
[2] = refractive index (other wavelength) (dimensionless); xn = mol fraction of the nth substance listed; conditions: 296.36 K, 100 kPa, Liquid, Wavelength=632.8 nm, Standard Abbe refractometry

O=[N+]([O-])c1ccccc1 [nitrobenzene]
[1]
Conditions	refractive index
288.97 K	1.5501
289.62 K	1.5497
290.5 K	1.5493
291.45 K	1.5488
292.36 K	1.5484
293.38 K	1.5479
294.4 K	1.5474
295.5 K	1.5469
301.66 K	1.5439
302.72 K	1.5433
303.85 K	1.5428
304.98 K	1.5423
306.08 K	1.5418
307.2 K	1.5412
308.25 K	1.5407
309.34 K	1.5402

O=[N+]([O-])c1ccccc1 [nitrobenzene] + CCCCCCCCC
[2]
Conditions	refractive index
x1 = 0.153	1.4162
x1 = 0.2	1.4207
x1 = 0.275	1.4284
x1 = 0.379	1.4401
x1 = 0.541	1.4612
x1 = 0.594	1.4691
x1 = 0.688	1.4838
x1 = 0.799	1.5035
x1 = 0.896	1.5231
x1 = 1	1.5467

CCCCCCCCC [nonane]
[1]
Conditions	refractive index
290.88 K	1.4053
291.94 K	1.4048
292.73 K	1.4044
293.55 K	1.404
294.5 K	1.4036
295.51 K	1.4031
296.48 K	1.4026
297.42 K	1.4022

CCCCCCCCC [nonane] + O=[N+]([O-])c1ccccc1
Conditions	refractive index
[2], x2 = 0	1.4029
